Results from patent US20030158204A1, “Diamino phenothiazine derivatives and composition comprising same” (priority 2000, published 2003).

How the values were obtained:
[1] = Hydrophilicity / water solubility; assay type: physicochemical; details: qualitative
Protocol: These derivatives more or less have the properties of methylene blue, are hydrosoluble, active by the enteral and parenteral route (IV, SC, etc.) and they never give rise to acute or chronic toxicity nor undesirable effects, at doses comprised between 0.05 mg/Kg and 40 mg/Kg.

[2] = Half life of the compound; details: qualitative
[3] = used externally and internally; cited from earlier work
[4] = tested on: pernicious attacks resistant to quinine (malaria); details: IV route; cited from earlier work

SMILES | hydrophilicity [1] | half life [2] | antiseptic activity [3] | activity on pernicious attacks resistant to quinine [4]
CNc1ccc2nc3c(C)cc(N(C)C)cc3[s+]c2c1C [Example 1, 4-5 dimethyl-7-(dimethylamino)-3(methylimino)-3H phenothiazine] | decreased hydrophilicity |  |  | 
CNc1ccc2nc3c(O)cc(N(C)C)cc3[s+]c2c1O [Example 4] | very hydrophilic | short half life |  | 
CN(C)c1ccc2nc3ccc(=[N+](C)C)cc-3sc2c1 [Methylene blue, methylene blue] |  |  | moderate | active
CNc1ccc2nc3c(Cl)cc(N(C)C)cc3[s+]c2c1C [Example 2] | more hydrophilic than the reference daughter molecule | considerably increases the half life |  | 
